Test results: PubChem BioAssay (NCI)
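Cells were grown in 96-well plates and exposed to each compound for 48 hours at five concentrations; endpoints were interpolated linearly between bracketing concentrations, or set to the highest concentration if not reached. TGI denotes the concentration required for complete inhibition of growth.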

Assays:
Test in all cases: NCI tumour cell line growth inhibition, 48 h
MDA-N = tested on: MDA-N
MALME-3M melanoma = tested on: MALME-3M melanoma
BT-549 breast = tested on: BT-549 breast
SK-MEL-5 melanoma = tested on: SK-MEL-5 melanoma
SK-MEL-28 melanoma = tested on: SK-MEL-28 melanoma
NCI/ADR-RES ovarian = tested on: NCI/ADR-RES ovarian
MOLT-4 leukemia = tested on: MOLT-4 leukemia
SNB-19 CNS = tested on: SNB-19 CNS
RPMI-8226 leukemia = tested on: RPMI-8226 leukemia
MCF7 breast = tested on: MCF7 breast
SN12C renal = tested on: SN12C renal
HCT-15 colon = tested on: HCT-15 colon
SR leukemia = tested on: SR leukemia
KM12 colon = tested on: KM12 colon
SNB-75 CNS = tested on: SNB-75 CNS
HT29 colon = tested on: HT29 colon
MDA-MB-231 breast = tested on: MDA-MB-231 breast
UACC-257 melanoma = tested on: UACC-257 melanoma
EKVX NSCLC = tested on: EKVX NSCLC
T-47D breast = tested on: T-47D breast
SK-OV-3 ovarian = tested on: SK-OV-3 ovarian
SF-539 CNS = tested on: SF-539 CNS
MDA-MB-435 = tested on: MDA-MB-435
ACHN renal = tested on: ACHN renal
OVCAR-4 ovarian = tested on: OVCAR-4 ovarian
RXF 393 renal = tested on: RXF 393 renal
PC-3 prostate = tested on: PC-3 prostate
HS 578T breast = tested on: HS 578T breast
HOP-62 NSCLC = tested on: HOP-62 NSCLC
U251 CNS = tested on: U251 CNS
UACC-62 melanoma = tested on: UACC-62 melanoma
HCC-2998 colon = tested on: HCC-2998 colon
SK-MEL-2 melanoma = tested on: SK-MEL-2 melanoma
IGROV1 ovarian = tested on: IGROV1 ovarian
NCI-H226 lung = tested on: NCI-H226 lung
LOX IMVI melanoma = tested on: LOX IMVI melanoma
HOP-92 NSCLC = tested on: HOP-92 NSCLC
786-0 renal = tested on: 786-0 renal
CAKI-1 renal = tested on: CAKI-1 renal
TK-10 renal = tested on: TK-10 renal
COLO 205 colon = tested on: COLO 205 colon
UO-31 renal = tested on: UO-31 renal
NCI-H460 lung = tested on: NCI-H460 lung
A549 NSCLC = tested on: A549 NSCLC
OVCAR-5 ovarian = tested on: OVCAR-5 ovarian
SF-268 CNS = tested on: SF-268 CNS
A498 renal = tested on: A498 renal
NCI-H23 lung = tested on: NCI-H23 lung
HCT-116 colon = tested on: HCT-116 colon
OVCAR-8 ovarian = tested on: OVCAR-8 ovarian
CCRF-CEM leukemia = tested on: CCRF-CEM leukemia
DU-145 prostate = tested on: DU-145 prostate
SF-295 CNS = tested on: SF-295 CNS
K-562 leukemia = tested on: K-562 leukemia
OVCAR-3 ovarian = tested on: OVCAR-3 ovarian
M14 melanoma = tested on: M14 melanoma
NCI-H522 lung = tested on: NCI-H522 lung
SW-620 colon = tested on: SW-620 colon

Measured: TGI

NC(N)=N/N=C\c1ccc(C2CCNCC2)cc1
> 100 µM: all assays above

CCOC(=O)Nc1cc(NC(/C=N/NC(C)=O)C(=O)OCC)c(OC)cc1NC(C)=O (centres undefined)
not listed: SF-539 CNS | LOX IMVI melanoma | NCI-H522 lung
> 100 µM: all other assays above

O=[N+]([O-])c1ccccc1N=Nc1c(O)[nH]c2ccc(S(=O)(=O)O)cc12
not listed: HCC-2998 colon | CCRF-CEM leukemia
> 100 µM: all other assays above
